In patent US6963769B1, “Method for enhancing contrast produced by MRI” (The United States of America as represented by the …, priority 1999, dated 2005):
Where “and” joins values, the source holds several entries; their conditions need not be identical. Identical values can stand only once. Counter-ions that a name gives are not always drawn. Like-named read-outs stand apart in the source and are kept apart here.

Experiments:
[1] = in vitro CEDST spectra of candidate contrast agents (proton chemical exchange with water), 7T; conditions: for chemical shift of proton chemical exchange site (ΔωcA): relative to water
Method: Test compounds were dissolved in HPLC grade water at concentrations denoted in Table 1 with inorganic phosphate buffers to maintain pH.
CEDST spectra were acquired at 7T using a Bruker AC-300 wide bore spectrometer at 37° C. The observation frequency was set on the water peak and the decoupler was used to provide off-resonance saturation. Studies were conducted using a steady-state with irradiation (15 seconds) over a range of irradiation frequencies ±8.00 ppm from water. CEDST spectra were plotted in the form of water amplitude (Ms) versus irradiation frequency.
Several chemical reagents, including 5,6-dihydrouracil, 5-hydroxy-tryptophan, hydantoin, parabanic acid, sugars, amino acids, nucleosides, and imidazoles (Table 1), were tested for their ability to undergo proton chemical exchange detected using CEDST. Chemical shifts are reported relative to the water resonance. The spectral dependence of CEDST was determined by sweeping the irradiation frequency and while monitoring the water resonance.
Saturation depends on the B1 power and the irradiation offset frequency. The appropriate power was determined by increasing power until no further decrease in Ms was observed. […] Spin lattice relaxation time constants (T1) were obtained with inversion-recovery experiments. The range of inversion delays (Ti) was between 0.001 and 30 seconds, with a 30 second pre-delay.

[2] = pKa of the proton exchange site
[3] = cited from earlier work
[4] = MR images of phantoms, 4T GRE sequence with off-resonance saturation at ±850 Hz (5.00 ppm), difference image; type: physicochemical
Method: The results in FIG. 3 confirm those of FIG. 2. MR images of phantoms were collected on a custom-designed 4T system operating at room temperature (about 20° C.). The imaging sequence itself is a GRE (Gradient Recalled Echo) imaging sequence with an off-resonance saturation pulse centered at an offset of 5.00 ppm (850 Hz for the field at 4 Tesla). The other parameters used were: 90 degree flip angle used, TE (Echo time)=9 msec, TR (Repetition time)=1.2 sec, 16 Sinc pulses, followed by crusher gradients (which completely dephased the transverse magnetization). Four test tubes are shown in FIG. 3, with each containing a different solution. Three contained 62.5 mM barbituric acid at pH=7.4, 7.0, or 6.5. The fourth test tube contained 500 mM NH4Cl at pH=5.0. These test tubes were placed inside the 4T NMR imaging system, irradiated at ±850 Hz, and both control and experimental images were collected as described previously. FIG. 3 is the difference image generated by subtracting the experimental image from the control image. […] Therefore, the signals in these phantoms were generated due to proton chemical exchange with barbituric acid. The brightest signal in these phantoms (where the control and experimental image difference was the greatest) was generated by barbituric acid at pH=7.4.

rabbit bladder = assay: in vivo CEDST MRI of rabbit bladder after intravenous barbituric acid, 4 Tesla; parameters: species or system New Zealand White rabbit
Method: This example describes the in vivo analysis of barbituric acid in a rabbit bladder. A male New Zealand White rabbit (1.5 kg, Hazelton Research Products, Denver Pa.) was initially anaesthetized with an intramuscular injection of a mixture of ketamine/acepromazaine (180 mg/2 mg), intubated and placed on a Siemens 900c ventilator (Siemens Medical Systems, Danvers Mass.). A catheter was placed in the marginal ear vein for infusion of intravenous fluids to maintain volume status. This catheter also was used to administer three doses of 50 mL barbituric acid solution (125 mM, pH=7.4, 20 mM phosphate buffer). Anesthesia was maintained with 2% isoflurane until sacrifice with 6 meq of KCl IV.
The rabbit was analyzed using a 4 Tesla magnet at the settings described in Example 1. The images were obtained after irradiation at the ppm offset characteristic of barbituric acid (5.25). […] The bladder and surrounding muscles are visible. This control image is collected to correct for the broad background of saturation transfer from macromolecules (i.e. proteins, lipids) located underneath the water signal. Guivel-Scharen et al., J. Magn. Reson., 133:36-45 (1998), herein incorporated by reference. […] This will irradiate the barbituric acid signal.
Following sacrifice of the rabbit, urine was collected and evaluated on the 7T system at 37° C. as described in Example 1. […] FIGS. 12-14 also confirm the identity of the metabolite imaged during the in vivo analysis.

[5] = cited from earlier work; remark: listed apart in the source
[6] = 62.5 mM, 37° C., 20 mM phosphate buffer, 10.88 × 10^−7T, at given ppm and pH
[7] = 62.5 mM, 37° C., 20 mM phosphate buffer, exchange site
[8] = 125 mM, guanidinium protons, single pH 7.0, 37° C., 20 mM phosphate buffer, 10.88 × 10^−7T
[9] = 125 mM, 3-NH, 37° C., 2 mM phosphate buffer, 10.88 × 10^−7T, at listed pH
[10] = sugars 250 mM, —OH protons, single pH 7.0, 37° C., 20 mM phosphate buffer
[11] = sugars 250 mM, —OH protons, single pH 7.0, 37° C., 20 mM phosphate buffer, saturation power 10.88 × 10^−7T
[12] = 125 mM, 37° C., 20 mM phosphate buffer, 10.88 × 10^−7T, at given ppm and pH
[13] = 125 mM, 37° C., 20 mM phosphate buffer, exchange site
[14] = 35 mM, —NH2, 37° C., 20 mM phosphate buffer, 10.88 × 10^−7T, at listed pH
[15] = imidazole derivatives, ring protons (—NH), concentration not given, 37° C., 20 mM phosphate buffer

## O=C1NC(=O)C(=O)N1 [Parabanic Acid]
[1]; [6]
  Mo − Ms (%): 20.5% and 25.4% and 22.5%
  Ms/Mo: 0.79 and 0.74 and 0.77

## CCC1(CC)C(=O)NC(=O)NC1=O [Barbital (5,5-Diethyl-Barbituric Acid), 5,5-Diethyl-Barbituric Acid]
[2]
  pKa: 7
[1]; [6]
  Mo − Ms (%): 14.2%
  Ms/Mo: 0.82
[1]; [7]
  ppm (relative to the resonant frequency of water): 5.000 ppm

## O=C(O)C1CCN1 (stereo not shown) [Azetidine-2-Carboxylic Acid]
[1]; [6]
  Mo − Ms (%): 25.5%
  Ms/Mo: 0.74
[1]; [7]
  ppm (relative to the resonant frequency of water): 3.50 ppm

## O=C1CCNC(=O)N1 [5,6 Dihydrouracil]
[3]
  pKa of the 5.00 ppm site: ~9.5
[1]; [6]
  Mo − Ms (%): 22.2%
  Ms/Mo: 0.78 and 0.77
[1]; [7]
  ppm (relative to the resonant frequency of water): 5.000 ppm and 2.667 ppm
[1]; running text, listed as 5,6-dihydro-uracil
  chemical shift of proton chemical exchange site (ΔωcA): 5.00 ppm and 2.67 ppm
[1]; running text, listed as 5,6-dihydrouracil
  chemical shift of proton chemical exchange site (ΔωcA): 5.0 ppm and 2.67 ppm

## O=C1CNC(=O)N1 [Hydantoin]
[1]; [6]
  Mo − Ms (%): 18.7% and 21.3%
  Ms/Mo: 0.81 and 0.78

## N=C(N)N [Guanidine HCl]
[1]; 125 mM, guanidinium protons, single pH 7.0, 37° C., 20 mM phosphate buffer
  ppm (relative to the resonant frequency of water): 2.000 ppm
[1]; [8]
  Mo − Ms (%): 60.0%
  Ms/Mo: 0.38

## O=C1CC(=O)NC(=S)N1 [2-Thio-Barbituric Acid]
[1]; [6]
  Mo − Ms (%): 35.3%
  Ms/Mo: 0.65
[1]; [7]
  ppm (relative to the resonant frequency of water): 6.333 ppm
[1]
  chemical shift of proton chemical exchange site (ΔωcA): 6.33 ppm

## O=C1CC(=O)NC(=O)N1 [Barbituric Acid]
[4]; 4T, about 20° C., irradiated at ±850 Hz, barbituric acid 62.5 mM pH 7.4, 7.0, 6.5, NH4Cl 500 mM pH 5.0
  enhancement in difference image of phantoms: enhanced
Rabbit bladder; intravenous, 125 mM solution
  physiological response to the injection: physiologically unaltered (i.e. no change in blood pressure)
Rabbit bladder; intravenous, 50 mL doses of 125 mM solution, pH 7.4
  time to reach the kidneys: ≤ 20 min
Rabbit bladder; irradiation ±900 Hz (5.25 ppm/4T)
  location of signal remaining in the in vivo difference image: is in the bladder, not in the muscle or other tissues
[5]
  Oral dosage toxicity, LD50: > 5000 mg/kg
[2]
  pKa: 12
[1]; [6]
  Mo − Ms (%): 32.5%
  Ms/Mo: 0.68
[1]; [7]
  ppm (relative to the resonant frequency of water): 5.000 ppm
[1]
  chemical shift of proton chemical exchange site (ΔωcA): 5.00 ppm

## O=c1ccn([C@@H]2O[C@H](CO)[C@@H](O)[C@H]2O)c(=O)[nH]1 [Uridine]
[1]; [9]
  Ms/Mo: 0.65

## O=C(O)C1CCCCN1 (stereo not shown) [Pipecolinic Acid]
[1]; [6]
  Mo − Ms (%): 19.3%
  Ms/Mo: 0.81
[1]; [7]
  ppm (relative to the resonant frequency of water): 3.33 ppm

## O=C[C@H](O)[C@@H](O)[C@@H](O)[C@H](O)CO [Galactose]
[1]; [10]
  ppm (relative to the resonant frequency of water): 1.167 ppm
[1]; [11]
  Mo − Ms (%): 10.3%
  Ms/Mo: 0.85

## C[C@H](N)C(=O)O [L-Alanine]
[1]; [12]
  Mo − Ms (%): 67.4%
  Ms/Mo: 0.36
[1]; [13]
  ppm (relative to the resonant frequency of water): 3.000 ppm

## N[C@@H](Cc1c[nH]c2ccc(O)cc12)C(=O)O [5-Hydroxy-Tryptophan]
[1]; [6]
  Ms/Mo: 0.57 and 0.79
[1]; [7]
  ppm (relative to the resonant frequency of water): 2.833 ppm and 5.333 ppm
[1]
  chemical shift of proton chemical exchange site (ΔωcA): 5.33 ppm and 2.83 ppm
[1]; listed as 5-HT
  chemical shift of proton chemical exchange site (ΔωcA): 5.33 ppm

## Cl.N [NH4Cl, reference compound]
[4]
  enhancement in difference image of phantoms: neither the surrounding water nor the NH4Cl control were significantly affected

## NCCCC[C@H](N)C(=O)O [L-Lysine]
[1]; [12]
  Mo − Ms (%): 66.2%
  Ms/Mo: 0.34
[1]; [13]
  ppm (relative to the resonant frequency of water): 3.000 ppm

## OC[C@H]1O[C@@](CO)(O[C@H]2O[C@H](CO)[C@@H](O)[C@H](O)[C@H]2O)[C@@H](O)[C@@H]1O [Sucrose]
[1]; [10]
  ppm (relative to the resonant frequency of water): 1.333 ppm
[1]; [11]
  Mo − Ms (%): 10.2%
  Ms/Mo: 0.86

## Cc1cn([C@H]2C[C@H](O)[C@@H](CO)O2)c(=O)[nH]c1=O [Thymidine]
[1]; 125 mM, 3-NH, 37° C., 2 mM phosphate buffer
  ppm (relative to the resonant frequency of water): 6.333 ppm
[1]; [9]
  Mo − Ms (%): 34.8%
  Ms/Mo: 0.65

## O=C(CO)[C@@H](O)[C@H](O)[C@H](O)CO [Fructose]
[1]; [10]
  ppm (relative to the resonant frequency of water): 1.333 ppm
[1]; [11]
  Mo − Ms (%): 9.3%
  Ms/Mo: 0.88

## NC(=O)CC[C@H](N)C(=O)O [L-Glutamine]
[1]; [12]
  Mo − Ms (%): 27.6%
  Ms/Mo: 0.70
[1]; [13]
  ppm (relative to the resonant frequency of water): 2.000 ppm

## OC[C@@H](O)[C@@H](O)[C@H](O)[C@@H](O)CO [Sorbitol]
[1]; [10]
  ppm (relative to the resonant frequency of water): 1.000 ppm
[1]; [11]
  Mo − Ms (%): 7.3%
  Ms/Mo: 0.88

## N[C@@H](Cc1c[nH]c2ccccc12)C(=O)O [L-Tryptophan]
[1]; 35 mM, —NH2, 37° C., 20 mM phosphate buffer
  ppm (relative to the resonant frequency of water): 2.000 ppm
[1]; [14]
  Mo − Ms (%): 12.2%
  Ms/Mo: 0.89

## OC[C@@H](O)[C@@H](O)[C@H](O)[C@H](O)CO [Mannitol]
[1]; [10]
  ppm (relative to the resonant frequency of water): 1.000 ppm
[1]; [11]
  Mo − Ms (%): 9.0%
  Ms/Mo: 0.89

## O=C1NCCN1 [2-Imidazolidone]
[1]; [15]
  Mo − Ms (%): 30.4% and 29.8%
  Ms/Mo: 0.68
  ppm (relative to the resonant frequency of water): 1.167 ppm
